Results taken from patent publication EP2181589A1, “Neurotoxic sterol glycosides” (Shaw, Christopher Ariel, priority 2008, dated 2010).
Entries after “also recorded” stand apart in the source; their conditions may differ.

Key:
CD-1 mice [1] = assay: Leg extension reflex test; assay type: in vivo
Experimental: (§1) Five-month old male CD-1 mice (30.1-35.7 g, 7.5 cm - 8.8 cm) were purchased from Charles River (Wilmington, MA). Adult mice were chosen to mimic the mean age of onset of ALS-PDC (Kurland, 1988; Kurland et al., 1994). Thirty mice for the SG study were randomly divided into 2 groups (14 control and 16 experimental animals). All animals were housed singly in a virus-free barrier facility in a room maintained at 22°C under a 12 hour light/dark cycle. The mice were provided ad libitum access to food and water.
The synthetic SG was mixed with finely ground Purina Chow mouse pellets (Mouse Diet™, Purina) to create the experimental pellets with a SG content of 1000 µg per pellet. Dry materials were blended with a sterile silicon spatula. For every 5 g of standard feed, 2.5 mL of doubly-distilled water (dd)H2O was added and the dough was kneaded and round up into pellets. A single sterol glucoside containing pellet was placed in the feeding tray each morning before the addition of regular mouse chow (ad libitum). […] SG feeding was conducted daily for 15 weeks and mice were behaviorally monitored until sacrifice at 35 weeks (time point 1) or 52 weeks (time point 2).
Leg extension reflex test: The leg extension reflex test was used as a measure of motor neuron dysfunction (Barneoud and Curet, 1999). […] The leg extension reflex was measured three times per week in each animal. […]

[2] = Body weights of SG-fed animals; assay type: in vivo, CD-1 mice; conditions: SG-fed vs control, over the study
Experimental: as §1
(§2) The synthetic SG was mixed with finely ground Purina Chow mouse pellets (Mouse Diet™, Purina) to create the experimental pellets with a SG content of 1000 µg per pellet. Dry materials were blended with a sterile silicon spatula. For every 5 g of standard feed, 2.5 mL of doubly-distilled water (dd)H2O was added and the dough was kneaded and round up into pellets. A single sterol glucoside containing pellet was placed in the feeding tray each morning before the addition of regular mouse chow (ad libitum). All experimental pellets were entirely consumed by the mice each day. Control mice were fed standard mouse chow pellets of identical weight with no additives. SG feeding was conducted daily for 15 weeks and mice were behaviorally monitored until sacrifice at 35 weeks (time point 1) or 52 weeks (time point 2).

Active Caspase-3 = assay: Active caspase-3 labelling (apoptotic activity); assay type: in vivo, CD-1 mice
Experimental: as §2
Tissue-mounted slides were processed for fluorescence microscopy as follows: Sections were rinsed in coplin jars for 45 minutes at room temperature (RT) in three changes of PBS. Sections were then incubated at RT for 30 minutes in a blocking permeabilization solution made of 5% normal goat serum (NGS), 5% normal rabbit serum (NRS) or 5% BlokHen II (Aves Labs, Inc., Tigard, OR), 0.05% Triton X-100 and PBS. Subsequently, the blocking solution was tipped off and the slides were rinsed in PBS for 2 minutes. […]

CD-1 mice [3] = assay: Gait analysis (Digigait); assay type: in vivo; conditions: SG-fed vs control
Experimental: as §1, §2
Gait analysis: In order to examine spatial and temporal indices of front and hind limb stepping patterns during forward locomotion, mice were required to run on a colorless (PVC and polycarbonate), straight, level, walled motorized belt (Digigait™, treadmill motor: DC, HP; torque 45 1b-in, Mouse Specifics, Inc., Boston, MA, USA) set at 30 rpm with a no-flicker light source (90-250 VAC; 25 kHZ, Mouse Specifics, Inc., Boston, MA, USA) and camera mounted ventrally (relative to the animal) to facilitate continuous ventral plane videography (up to 150 frames per second) of activity. Gait indices were analyzed with the complementary digital imaging software (Digigait™, Mouse Specifics, Inc., Boston, MA, USA) as per manufacturer's instructions. Briefly, the software converts "paw prints" into a digital signal and generates a temporal record of paw placement and breaks down the digital file into three main parameters: stride duration, swing duration, and stance duration. The stance duration is the period during which the paw of a limb is in contact with the belt surface. The software further subdivides the stance duration into two components: braking duration (the increase in paw contact area over a discrete time interval) and propulsion duration (the decrease in paw contact area over a discrete time interval). The swing duration is the period of time that a paw is not in contact with the belt surface. In addition to these factors, over a dozen additional characteristics, including stance factor, step-sequence pattern, propulsion, and cadence are generated to provide a spreadsheet format report of twenty-five gait indices.

[4] = SG-fed vs control, time-point 2, 52 wk

With `CCC(C=CC(C)C1CCC2C3CC=C4CC(OC5OC(CO)C(O)C(O)C5O)CCC4(C)C3CCC12C)C(C)C` (centres unmarked) [SG] the “Leg extension reflex test performance (score)” value (CD-1 mice [1]; SG-fed animals, soon after 35 weeks / during the study) was “steady decline in performance; also recorded: decreased”, the Leg extension (CD-1 mice [1]; [4]) was “Leg extension* (*p<0.05)” and the Body weights [2] was “not significantly different; also recorded: normal weight gain”. For the same compound, the Apoptotic cells (Active Caspase-3; SG-fed group over time, 35 to 52 wk) was “Apoptotic cells (SG-fed group over time) (ns)”, the “number of apoptotic cells” value (Active Caspase-3; SG-fed vs control, 52 weeks (figure legend)) was “did not reach significance” and the “Anti-active caspase 3” value (Active Caspase-3; [4]) was “(ns)”. The Forelimb braking (CD-1 mice [3]; time-point 1, 35 wk) was “Forelimb braking (ns)”, the Forelimb propulsion (CD-1 mice [3]; time-point 1, 35 wk) was “Forelimb propulsion (ns)” and the Forelimb stance width (CD-1 mice [3]; time-point 1, 35 wk) was “Forelimb stance width (ns)”. The Forelimb stride length (CD-1 mice [3]; time-point 1, 35 wk) was “Forelimb stride length (ns)”, the Hind limb braking (CD-1 mice [3]; time-point 1, 35 wk) was “Hind limb braking (ns)” and the Hind limb propulsion (CD-1 mice [3]; time-point 1, 35 wk) was “Hind limb propulsion (ns)”. For the same compound, the “Hind limb stance width” value (CD-1 mice [3]; time-point 1, 35 wk) was “Hind limb stance width (ns)”, the “Hind limb stride frequency” value (CD-1 mice [3]; time-point 1, 35 wk) was “Hind limb stride frequency (ns)” and the “Hind limb stride length” value (CD-1 mice [3]; time-point 1, 35 wk) was “Hind limb stride length (ns)”. For the same compound, the Forelimb braking (CD-1 mice [3]; time-point 2, 52 wk) was “Forelimb braking* (*p<0.05)”, the Forelimb propulsion (CD-1 mice [3]; time-point 2, 52 wk) was “Forelimb propulsion* (*p<0.05)” and the Hind limb braking (CD-1 mice [3]; time-point 2, 52 wk) was “Hind limb braking* (*p<0.05)”. For the same compound, the Hind limb propulsion (CD-1 mice [3]; time-point 2, 52 wk) was “Hind limb propulsion* (*p<0.05)” and the “Hind limb stride frequency” value (CD-1 mice [3]; time-point 2, 52 wk) was “Hind limb stride frequency* (*p<0.05)”.
